# Columns and labels:
# Test in all cases: relative viability (nuclei count vs DMSO), 5 days (fraction); higher = more cells survive
# [1] = compound: Nc1nc2[nH]cc(CCc3ccc(C(=O)N[C@@H](CCC(=O)O)C(=O)O)cc3)c2c(=O)[nH]1 [Pemetrexed] + CC(=O)c1c(C)c2cnc(Nc3ccc(N4CCNCC4)cn3)nc2n(C2CCCC2)c1=O [Palbociclib] (partner 0.5 µM)
# Outline: (§1)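 A single step with final 0.05% Triton X-100, 1% formaldehyde and 1 ug/ml Hoechst fixed the cells and stained nuclei 5 days after treatment. Lung cancer cell lines in 1536-well plates had been treated by pin tool the day after seeding with one drug alone or a fixed anchor-drug dose plus five library-drug doses (not always all listed) in √10 steps, and nuclei were counted on 4× images. Relative viability is the ratio of nuclei in treated wells to nuclei in vehicle wells, taken as the median of duplicate plates.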
# [2] = compound: CC[C@H](Nc1ncnc2[nH]cnc12)c1nc2cccc(F)c2c(=O)n1-c1ccccc1 [Idelalisib] + C[C@@H](Oc1cc(-c2cnn(C3CCNCC3)c2)cnc1N)c1c(Cl)ccc(F)c1Cl [Crizotinib] (partner 1 µM)
# Outline: as §1
# [3] = compound: Nc1nc2[nH]cc(CCc3ccc(C(=O)N[C@@H](CCC(=O)O)C(=O)O)cc3)c2c(=O)[nH]1 [Pemetrexed] + Nc1ncn([C@H]2C[C@H](O)[C@@H](CO)O2)c(=O)n1 [Decitabine] (partner 2 µM)
# Outline: as §1
# [4] = compound: CC[C@H](Nc1ncnc2[nH]cnc12)c1nc2cccc(F)c2c(=O)n1-c1ccccc1 [Idelalisib] + O=C(CCCCCCC(=O)Nc1ccccc1)NO [Vorinostat] (partner 1 µM)
# Outline: as §1
Cell Line,relative viability ([1]; first compound 0.002 µM),relative viability ([1]; first compound 0.006325 µM),relative viability ([1]; first compound 0.02 µM),relative viability ([1]; first compound 0.06325 µM),relative viability ([1]; first compound 0.2 µM),relative viability ([2]; first compound 0.04 µM),relative viability ([2]; first compound 0.1265 µM),relative viability ([2]; first compound 0.4 µM),relative viability ([2]; first compound 1.265 µM),relative viability ([2]; first compound 4 µM),relative viability ([3]; first compound 0.002 µM),relative viability ([3]; first compound 0.006325 µM),relative viability ([3]; first compound 0.02 µM),relative viability ([3]; first compound 0.06325 µM),relative viability ([3]; first compound 0.2 µM),relative viability ([4]; first compound 0.04 µM),relative viability ([4]; first compound 0.1265 µM),relative viability ([4]; first compound 0.4 µM),relative viability ([4]; first compound 1.265 µM),relative viability ([4]; first compound 4 µM)
201T,0.396,0.352,0.365,0.335,0.362,1.02,1.07,0.999,1.08,1.02,0.712,0.803,0.808,0.849,0.85,1.01,0.982,0.874,0.997,0.755
A549,–,–,–,–,–,0.902,0.899,0.669,0.751,0.539,0.234,0.213,0.194,0.346,0.281,–,–,–,–,–
A-427,0.505,0.529,0.572,0.509,0.483,1.05,1.04,0.789,1.05,0.755,0.585,0.537,0.545,0.572,0.544,0.921,0.889,0.833,0.901,0.874
ABC-1,0.905,0.527,0.684,0.468,0.542,0.95,1.23,1.14,1.04,0.902,1.15,1.02,1.32,0.997,1.19,1.01,1.13,0.751,1.03,1.39
BEN,0.544,0.473,0.531,0.457,0.458,0.875,1.06,0.751,0.886,0.661,0.657,0.767,0.813,0.668,0.719,0.531,0.53,0.552,0.59,0.514
CAL-12T,0.338,0.435,0.575,0.438,0.341,0.769,0.636,0.562,0.635,0.518,–,–,–,–,–,0.831,0.689,0.65,0.704,0.648
COR-L23,0.21,0.275,0.254,0.149,0.127,0.881,0.678,0.67,0.712,0.393,0.419,0.465,0.554,0.225,0.188,0.535,0.396,0.396,0.535,0.421
COR-L 105,0.295,0.424,0.399,0.396,0.423,0.702,0.948,0.709,0.778,0.775,0.672,0.692,0.699,0.633,0.685,0.859,0.876,0.778,0.724,1.11
Calu-6,–,–,–,–,–,0.866,0.822,0.759,0.832,0.774,–,–,–,–,–,–,–,–,–,–
ChaGo-K-1,0.959,0.888,0.971,0.668,0.369,1.38,1.13,1.1,1.15,1.17,0.538,0.531,0.552,0.531,0.368,0.832,0.702,0.695,0.82,0.732
EBC-1,–,–,–,–,–,0.202,0.185,0.172,0.204,0.202,–,–,–,–,–,–,–,–,–,–
EKVX,0.386,0.365,0.407,0.399,0.284,0.83,0.897,0.633,0.753,0.752,0.405,0.257,0.368,0.316,0.325,0.726,0.792,0.676,0.703,0.399
EMC-BAC-2,0.51,0.461,0.543,0.493,0.466,0.788,0.796,0.676,0.742,0.732,0.965,0.882,1,0.971,0.64,0.639,0.42,0.419,0.496,0.633
EPLC-272H,0.355,0.331,0.356,0.332,0.303,0.891,0.853,0.753,0.739,0.748,0.348,0.377,0.413,0.33,0.296,0.422,0.405,0.431,0.292,0.452
H3255,0.351,0.319,0.312,0.31,0.328,0.77,0.898,0.757,0.876,0.734,0.494,0.581,0.681,0.535,0.454,0.978,0.853,0.796,0.91,0.736
HARA,0.241,0.277,0.228,0.231,0.234,1.2,0.988,0.894,0.988,0.991,0.486,0.457,0.659,0.437,0.234,0.453,0.504,0.473,0.574,0.39
HCC-15,0.661,0.712,0.717,0.669,0.309,0.809,0.842,0.72,0.885,0.762,0.483,0.604,0.684,0.406,0.191,0.764,0.865,0.888,0.889,0.69

Cell Line,relative viability ([1]; first compound 0.002 µM),relative viability ([1]; first compound 0.006325 µM),relative viability ([1]; first compound 0.02 µM),relative viability ([1]; first compound 0.06325 µM),relative viability ([1]; first compound 0.2 µM),relative viability ([2]; first compound 0.04 µM),relative viability ([2]; first compound 0.1265 µM),relative viability ([2]; first compound 0.4 µM),relative viability ([2]; first compound 1.265 µM),relative viability ([2]; first compound 4 µM),relative viability ([3]; first compound 0.002 µM),relative viability ([3]; first compound 0.006325 µM),relative viability ([3]; first compound 0.02 µM),relative viability ([3]; first compound 0.06325 µM),relative viability ([3]; first compound 0.2 µM),relative viability ([4]; first compound 0.04 µM),relative viability ([4]; first compound 0.1265 µM),relative viability ([4]; first compound 0.4 µM),relative viability ([4]; first compound 1.265 µM),relative viability ([4]; first compound 4 µM)
HCC-44,0.909,0.95,0.934,0.972,0.99,0.822,0.857,0.819,0.948,0.85,0.854,0.909,1.02,0.922,0.905,1.19,1.08,1.12,1.22,1.12
HCC-78,0.443,0.484,0.441,0.417,0.424,0.322,0.354,0.296,0.31,0.274,–,0.685,0.777,0.324,0.307,0.462,0.448,0.393,0.468,0.332
HCC-366,0.356,0.349,0.349,0.367,0.226,0.891,0.398,0.471,0.464,0.411,0.331,0.387,0.346,0.329,0.211,0.391,0.36,0.33,0.293,0.325
HCC-827,0.386,0.413,0.529,0.44,0.327,0.978,0.943,0.864,0.927,0.838,0.264,0.341,0.409,0.214,0.305,0.957,0.664,0.897,0.848,0.969
IA-LM,–,–,–,–,–,0.745,0.849,0.944,1.19,0.818,–,–,–,–,–,0.607,0.907,0.913,1.02,0.944
NCI-H522,1.22,0.82,1.09,0.985,0.843,–,–,–,–,–,0.624,0.692,0.721,0.691,0.73,0.964,0.846,0.929,0.901,0.956
NCI-H596,–,–,–,–,–,1.02,0.902,0.886,0.923,0.948,0.996,1.03,0.972,0.839,0.553,0.622,0.595,0.511,0.567,0.415
NCI-H1299,–,–,–,–,–,0.99,0.969,0.919,1.08,1.01,–,–,–,–,–,–,–,–,–,–
NCI-H1395,0.61,0.599,0.675,0.625,0.599,–,–,–,–,–,0.681,0.71,0.85,0.697,0.74,0.841,0.813,0.692,0.674,0.692
NCI-H1563,–,–,–,–,–,0.774,0.87,0.793,0.828,0.728,–,–,–,–,–,–,–,–,–,–
NCI-H1648,0.255,0.24,0.24,0.282,0.302,–,–,–,–,–,0.407,0.431,0.655,0.508,0.394,0.395,0.483,0.357,0.224,0.31
NCI-H1703,–,–,–,–,–,0.857,0.56,0.631,0.754,0.315,–,–,–,–,–,–,–,–,–,–
NCI-H1792,0.7,0.608,0.685,0.671,0.642,0.612,0.987,0.804,0.979,1.01,0.506,0.532,0.527,0.507,0.56,–,–,–,–,–
NCI-H1793,0.306,0.291,0.326,0.278,0.295,–,–,–,–,–,0.512,0.449,0.583,0.512,0.528,0.764,0.699,–,0.75,0.582
NCI-H2228,0.579,0.755,0.746,0.341,0.268,0.476,0.389,0.354,0.413,0.355,–,–,–,–,–,0.812,0.53,0.482,0.588,0.613
NCI-H2342,0.494,0.505,0.57,0.514,0.521,–,–,–,–,–,0.675,0.701,0.767,0.716,0.835,0.801,0.736,0.689,0.664,0.736
SW 900,0.549,0.564,0.604,0.516,0.521,–,–,–,–,–,0.342,0.433,0.553,0.377,0.424,0.442,0.548,0.407,0.514,0.441
